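Compound exposure: 48 hours, 5 concentrations, 96-well plates. Abbreviation: GI50, concentration required for 50% inhibition of growth. TGI is the concentration that stops growth completely.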
Assays:
Assay in all cases: NCI-60 cell line screen, 48 h
SF-295 CNS = tested on: SF-295 CNS
SNB-75 CNS = tested on: SNB-75 CNS
KM12 colon = tested on: KM12 colon
SK-MEL-2 melanoma = tested on: SK-MEL-2 melanoma
HT29 colon = tested on: HT29 colon
OVCAR-8 ovarian = tested on: OVCAR-8 ovarian
A549 NSCLC = tested on: A549 NSCLC
RPMI-8226 leukemia = tested on: RPMI-8226 leukemia
EKVX NSCLC = tested on: EKVX NSCLC
NCI-H226 lung = tested on: NCI-H226 lung
MDA-MB-231 breast = tested on: MDA-MB-231 breast
NCI-H23 lung = tested on: NCI-H23 lung
OVCAR-3 ovarian = tested on: OVCAR-3 ovarian
MDA-MB-435 = tested on: MDA-MB-435
A498 renal = tested on: A498 renal
HOP-62 NSCLC = tested on: HOP-62 NSCLC
RXF 393 renal = tested on: RXF 393 renal
786-0 renal = tested on: 786-0 renal
SK-MEL-5 melanoma = tested on: SK-MEL-5 melanoma
OVCAR-4 ovarian = tested on: OVCAR-4 ovarian
SN12C renal = tested on: SN12C renal
HOP-92 NSCLC = tested on: HOP-92 NSCLC
SNB-19 CNS = tested on: SNB-19 CNS
NCI-H460 lung = tested on: NCI-H460 lung
SF-268 CNS = tested on: SF-268 CNS
MCF7 breast = tested on: MCF7 breast
HCT-116 colon = tested on: HCT-116 colon
PC-3 prostate = tested on: PC-3 prostate
SR leukemia = tested on: SR leukemia
SK-MEL-28 melanoma = tested on: SK-MEL-28 melanoma
HS 578T breast = tested on: HS 578T breast
CCRF-CEM leukemia = tested on: CCRF-CEM leukemia
UACC-62 melanoma = tested on: UACC-62 melanoma
NCI/ADR-RES ovarian = tested on: NCI/ADR-RES ovarian
MOLT-4 leukemia = tested on: MOLT-4 leukemia
TK-10 renal = tested on: TK-10 renal
HCT-15 colon = tested on: HCT-15 colon
UACC-257 melanoma = tested on: UACC-257 melanoma
CAKI-1 renal = tested on: CAKI-1 renal
SF-539 CNS = tested on: SF-539 CNS
K-562 leukemia = tested on: K-562 leukemia
NCI-H522 lung = tested on: NCI-H522 lung
BT-549 breast = tested on: BT-549 breast
T-47D breast = tested on: T-47D breast
MALME-3M melanoma = tested on: MALME-3M melanoma
LOX IMVI melanoma = tested on: LOX IMVI melanoma
HL-60(TB) leukemia = tested on: HL-60(TB) leukemia
DU-145 prostate = tested on: DU-145 prostate
HCC-2998 colon = tested on: HCC-2998 colon
COLO 205 colon = tested on: COLO 205 colon
M14 melanoma = tested on: M14 melanoma
SW-620 colon = tested on: SW-620 colon
U251 CNS = tested on: U251 CNS
SK-OV-3 ovarian = tested on: SK-OV-3 ovarian
ACHN renal = tested on: ACHN renal
OVCAR-5 ovarian = tested on: OVCAR-5 ovarian
IGROV1 ovarian = tested on: IGROV1 ovarian
UO-31 renal = tested on: UO-31 renal

Question: What does the source list for `CC(=O)ON(OCc1ccc2ccccc2c1)C(C)=O`?
Answer: GI50 (SF-295 CNS): > 100 µM; TGI (SF-295 CNS): > 100 µM; GI50 (SNB-75 CNS): 96.6 µM; TGI (SNB-75 CNS): > 100 µM; GI50 (KM12 colon): > 100 µM; TGI (KM12 colon): > 100 µM; GI50 (SK-MEL-2 melanoma): > 100 µM; TGI (SK-MEL-2 melanoma): > 100 µM; GI50 (HT29 colon): > 100 µM; TGI (HT29 colon): > 100 µM; GI50 (OVCAR-8 ovarian): > 100 µM; TGI (OVCAR-8 ovarian): > 100 µM; GI50 (A549 NSCLC): > 100 µM; TGI (A549 NSCLC): > 100 µM; GI50 (RPMI-8226 leukemia): > 100 µM; TGI (RPMI-8226 leukemia): > 100 µM; GI50 (EKVX NSCLC): 32.3 µM; TGI (EKVX NSCLC): > 100 µM; GI50 (NCI-H226 lung): > 100 µM; TGI (NCI-H226 lung): > 100 µM; GI50 (MDA-MB-231 breast): > 100 µM; TGI (MDA-MB-231 breast): > 100 µM; GI50 (NCI-H23 lung): > 100 µM; TGI (NCI-H23 lung): > 100 µM; GI50 (OVCAR-3 ovarian): > 100 µM; TGI (OVCAR-3 ovarian): > 100 µM; GI50 (MDA-MB-435): > 100 µM; TGI (MDA-MB-435): > 100 µM; GI50 (A498 renal): > 100 µM; TGI (A498 renal): > 100 µM; GI50 (HOP-62 NSCLC): > 100 µM; TGI (HOP-62 NSCLC): > 100 µM; GI50 (RXF 393 renal): > 100 µM; TGI (RXF 393 renal): > 100 µM; GI50 (786-0 renal): > 100 µM; TGI (786-0 renal): > 100 µM; GI50 (SK-MEL-5 melanoma): 94.7 µM; TGI (SK-MEL-5 melanoma): > 100 µM; GI50 (OVCAR-4 ovarian): > 100 µM; TGI (OVCAR-4 ovarian): > 100 µM; GI50 (SN12C renal): > 100 µM; TGI (SN12C renal): > 100 µM; GI50 (HOP-92 NSCLC): 34.8 µM; TGI (HOP-92 NSCLC): > 100 µM; GI50 (SNB-19 CNS): > 100 µM; TGI (SNB-19 CNS): > 100 µM; GI50 (NCI-H460 lung): > 100 µM; TGI (NCI-H460 lung): > 100 µM; GI50 (SF-268 CNS): > 100 µM; TGI (SF-268 CNS): > 100 µM; GI50 (MCF7 breast): 96.1 µM; TGI (MCF7 breast): > 100 µM; GI50 (HCT-116 colon): > 100 µM; TGI (HCT-116 colon): > 100 µM; GI50 (PC-3 prostate): > 100 µM; TGI (PC-3 prostate): > 100 µM; GI50 (SR leukemia): 86.5 µM; TGI (SR leukemia): > 100 µM; GI50 (SK-MEL-28 melanoma): > 100 µM; TGI (SK-MEL-28 melanoma): > 100 µM; GI50 (HS 578T breast): 55.2 µM; TGI (HS 578T breast): > 100 µM; GI50 (CCRF-CEM leukemia): > 100 µM; TGI (CCRF-CEM leukemia): > 100 µM; GI50 (UACC-62 melanoma): > 100 µM; TGI (UACC-62 melanoma): > 100 µM; GI50 (NCI/ADR-RES ovarian): > 100 µM; TGI (NCI/ADR-RES ovarian): > 100 µM; GI50 (MOLT-4 leukemia): > 100 µM; TGI (MOLT-4 leukemia): > 100 µM; GI50 (TK-10 renal): > 100 µM; TGI (TK-10 renal): > 100 µM; GI50 (HCT-15 colon): > 100 µM; TGI (HCT-15 colon): > 100 µM; GI50 (UACC-257 melanoma): > 100 µM; TGI (UACC-257 melanoma): > 100 µM; GI50 (CAKI-1 renal): > 100 µM; TGI (CAKI-1 renal): > 100 µM; GI50 (SF-539 CNS): > 100 µM; TGI (SF-539 CNS): > 100 µM; GI50 (K-562 leukemia): > 100 µM; TGI (K-562 leukemia): > 100 µM; GI50 (NCI-H522 lung): > 100 µM; TGI (NCI-H522 lung): > 100 µM; GI50 (BT-549 breast): > 100 µM; TGI (BT-549 breast): > 100 µM; GI50 (T-47D breast): > 100 µM; TGI (T-47D breast): > 100 µM; GI50 (MALME-3M melanoma): > 100 µM; TGI (MALME-3M melanoma): > 100 µM; GI50 (LOX IMVI melanoma): 85.4 µM; TGI (LOX IMVI melanoma): > 100 µM; GI50 (HL-60(TB) leukemia): > 100 µM; TGI (HL-60(TB) leukemia): > 100 µM; GI50 (DU-145 prostate): > 100 µM; TGI (DU-145 prostate): > 100 µM; GI50 (HCC-2998 colon): > 100 µM; TGI (HCC-2998 colon): > 100 µM; GI50 (COLO 205 colon): > 100 µM; TGI (COLO 205 colon): > 100 µM; GI50 (M14 melanoma): > 100 µM; TGI (M14 melanoma): > 100 µM; GI50 (SW-620 colon): > 100 µM; TGI (SW-620 colon): > 100 µM; GI50 (U251 CNS): > 100 µM; TGI (U251 CNS): > 100 µM; GI50 (SK-OV-3 ovarian): > 100 µM; TGI (SK-OV-3 ovarian): > 100 µM; GI50 (ACHN renal): > 100 µM; TGI (ACHN renal): > 100 µM; GI50 (OVCAR-5 ovarian): > 100 µM; TGI (OVCAR-5 ovarian): > 100 µM; GI50 (IGROV1 ovarian): > 100 µM; TGI (IGROV1 ovarian): > 100 µM; GI50 (UO-31 renal): 85 µM; TGI (UO-31 renal): > 100 µM
